Assay results as given in the supplement of paper PMC10307832.

Columns and labels:
Assay in all cases: relative viability (nuclei count vs DMSO), 5 days (fraction); higher = more cells survive
[1] = system: NCI-H727
In short: (§1)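 Lung cancer cell lines were seeded in 1536-well plates and dosed by pin tool the next day, with either a single drug or a fixed anchor-drug dose combined with five library-drug doses (not always all listed) spaced in √10 steps. Five days later, one step fixed the cells and stained their nuclei (final 0.05% Triton X-100, 1% formaldehyde, 1 ug/ml Hoechst), and nuclei were counted on 4× images. Relative viability is the nuclei count in treated wells divided by the count in vehicle wells, and each value is the median of duplicate plates.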

[2] = system: SW 1573
In short: as §1

[3] = system: NCI-H1563
In short: as §1

[4] = system: NCI-H23
In short: as §1

[5] = system: LCLC-103H
In short: as §1

[6] = system: NCI-H650
In short: as §1

[7] = system: NCI-H1944
In short: as §1

[8] = system: PC-3 [JPC-3]
In short: as §1

[9] = system: NCI-H1651
In short: as §1

[10] = system: NCI-H460
In short: as §1

[11] = system: RERF-LC-KJ
In short: as §1

[12] = system: COR-L23
In short: as §1

[13] = system: LK-2
In short: as §1

[14] = system: A-427
In short: as §1

[15] = system: PC-14
In short: as §1

[16] = system: LU99A
In short: as §1

[17] = system: NCI-H1793
In short: as §1

[18] = system: 201T
In short: as §1

[19] = system: LCLC-97TM1
In short: as §1

[20] = system: NCI-H838
In short: as §1

[21] = system: H3255
In short: as §1

[22] = system: NCI-H2347
In short: as §1

SMILES: Clc1ccc(Nc2nnc(Cc3ccncc3)c3ccccc23)cc1 [Vatalanib] + C[C@]1(O)C[C@@H](c2nc(-c3ccc4ccc(-c5ccccc5)nc4c3)c3c(N)nccn32)C1 [Linsitinib] (partner 1 µM)
- relative viability ([1]; first compound 0.04 µM): 0.3
- relative viability ([1]; first compound 0.1265 µM): 0.184
- relative viability ([1]; first compound 0.4 µM): 0.358
- relative viability ([1]; first compound 1.265 µM): 0.236
- relative viability ([1]; first compound 4 µM): 0.285
- relative viability ([2]; first compound 0.04 µM): 1
- relative viability ([2]; first compound 0.1265 µM): 0.791
- relative viability ([2]; first compound 0.4 µM): 0.781
- relative viability ([2]; first compound 1.265 µM): 0.802
- relative viability ([2]; first compound 4 µM): 0.723
- relative viability ([3]; first compound 0.04 µM): 1.42
- relative viability ([3]; first compound 0.1265 µM): 1.27
- relative viability ([3]; first compound 0.4 µM): 1.24
- relative viability ([3]; first compound 1.265 µM): 1.12
- relative viability ([3]; first compound 4 µM): 1.2
- relative viability ([4]; first compound 0.04 µM): 0.533
- relative viability ([4]; first compound 0.1265 µM): 0.659
- relative viability ([4]; first compound 0.4 µM): 0.601
- relative viability ([4]; first compound 1.265 µM): 0.495
- relative viability ([4]; first compound 4 µM): 0.583
- relative viability ([5]; first compound 0.04 µM): 1.24
- relative viability ([5]; first compound 0.1265 µM): 1.07
- relative viability ([5]; first compound 0.4 µM): 1.24
- relative viability ([5]; first compound 1.265 µM): 1.06
- relative viability ([5]; first compound 4 µM): 1.05
- relative viability ([6]; first compound 0.04 µM): 0.942
- relative viability ([6]; first compound 0.1265 µM): 0.77
- relative viability ([6]; first compound 1.265 µM): 0.723
- relative viability ([6]; first compound 4 µM): 0.833
- relative viability ([7]; first compound 0.04 µM): 1.11
- relative viability ([7]; first compound 0.1265 µM): 0.997
- relative viability ([7]; first compound 0.4 µM): 1.17
- relative viability ([7]; first compound 1.265 µM): 1.2
- relative viability ([7]; first compound 4 µM): 1.23
- relative viability ([8]; first compound 0.04 µM): 0.986
- relative viability ([8]; first compound 0.1265 µM): 1.01
- relative viability ([8]; first compound 0.4 µM): 0.957
- relative viability ([8]; first compound 1.265 µM): 0.824
- relative viability ([8]; first compound 4 µM): 0.932
- relative viability ([9]; first compound 0.04 µM): 0.971
- relative viability ([9]; first compound 0.1265 µM): 0.927
- relative viability ([9]; first compound 0.4 µM): 0.94
- relative viability ([9]; first compound 1.265 µM): 0.948
- relative viability ([9]; first compound 4 µM): 1.13
- relative viability ([10]; first compound 0.04 µM): 1.01
- relative viability ([10]; first compound 0.1265 µM): 0.684
- relative viability ([10]; first compound 0.4 µM): 0.732
- relative viability ([10]; first compound 1.265 µM): 0.699
- relative viability ([10]; first compound 4 µM): 0.711
- relative viability ([11]; first compound 0.04 µM): 0.932
- relative viability ([11]; first compound 0.1265 µM): 0.875
- relative viability ([11]; first compound 0.4 µM): 0.933
- relative viability ([11]; first compound 1.265 µM): 0.762
- relative viability ([11]; first compound 4 µM): 0.812
- relative viability ([12]; first compound 0.04 µM): 0.978
- relative viability ([12]; first compound 0.1265 µM): 0.943
- relative viability ([12]; first compound 0.4 µM): 1.08
- relative viability ([12]; first compound 1.265 µM): 0.811
- relative viability ([12]; first compound 4 µM): 0.922
- relative viability ([13]; first compound 0.04 µM): 0.712
- relative viability ([13]; first compound 0.1265 µM): 0.423
- relative viability ([13]; first compound 0.4 µM): 0.541
- relative viability ([13]; first compound 1.265 µM): 0.435
- relative viability ([13]; first compound 4 µM): 0.704
- relative viability ([14]; first compound 0.04 µM): 1.15
- relative viability ([14]; first compound 0.1265 µM): 1.1
- relative viability ([14]; first compound 0.4 µM): 1.13
- relative viability ([14]; first compound 1.265 µM): 1.06
- relative viability ([14]; first compound 4 µM): 1.1
- relative viability ([15]; first compound 0.04 µM): 0.955
- relative viability ([15]; first compound 0.1265 µM): 0.905
- relative viability ([15]; first compound 0.4 µM): 1.03
- relative viability ([15]; first compound 1.265 µM): 0.955
- relative viability ([15]; first compound 4 µM): 0.871
- relative viability ([16]; first compound 0.04 µM): 0.545
- relative viability ([16]; first compound 0.1265 µM): 0.585
- relative viability ([16]; first compound 0.4 µM): 0.558
- relative viability ([16]; first compound 1.265 µM): 0.534
- relative viability ([16]; first compound 4 µM): 0.49
- relative viability ([17]; first compound 0.04 µM): 0.857
- relative viability ([17]; first compound 0.1265 µM): 0.693
- relative viability ([17]; first compound 0.4 µM): 0.816
- relative viability ([17]; first compound 1.265 µM): 0.719
- relative viability ([17]; first compound 4 µM): 0.819
- relative viability ([18]; first compound 0.04 µM): 1.02
- relative viability ([18]; first compound 0.1265 µM): 1.04
- relative viability ([18]; first compound 0.4 µM): 1.02
- relative viability ([18]; first compound 1.265 µM): 0.985
- relative viability ([18]; first compound 4 µM): 0.949
- relative viability ([19]; first compound 0.04 µM): 0.183
- relative viability ([19]; first compound 0.1265 µM): 0.17
- relative viability ([19]; first compound 0.4 µM): 0.189
- relative viability ([19]; first compound 1.265 µM): 0.159
- relative viability ([19]; first compound 4 µM): 0.179
- relative viability ([20]; first compound 0.04 µM): 1.01
- relative viability ([20]; first compound 0.1265 µM): 0.994
- relative viability ([20]; first compound 0.4 µM): 1.15
- relative viability ([20]; first compound 1.265 µM): 0.932
- relative viability ([20]; first compound 4 µM): 0.976
- relative viability ([21]; first compound 0.04 µM): 0.984
- relative viability ([21]; first compound 0.1265 µM): 0.902
- relative viability ([21]; first compound 0.4 µM): 0.702
- relative viability ([21]; first compound 1.265 µM): 0.932
- relative viability ([21]; first compound 4 µM): 0.921
- relative viability ([22]; first compound 0.04 µM): 1.01
- relative viability ([22]; first compound 0.1265 µM): 0.908
- relative viability ([22]; first compound 0.4 µM): 0.976
- relative viability ([22]; first compound 1.265 µM): 0.901
- relative viability ([22]; first compound 4 µM): 0.942
